The text below walks through data of PubChem BioAssay AID248 (DTP/NCI, 2004).

This test has as its system L1210 leukemia ip in BDF1 mice, survival T/C. Kind of test: NCI In Vivo Anticancer Drug Screen. Data for tumor model L1210 Leukemia (intraperitoneal) in B6D2F1 (BDF1) mice. The note with it: endpoint: mean survival time, higher = longer survival. The method in brief:
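Survival endpoint. Drug-treated group vs vehicle group, expressed as T divided by C. Tumor passaged by transplantation.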

[1] abbreviates: dose: 100.0 mg/kg/injection, schedule: Q01DX009 (ip), vehicle: saline.

Where “and” joins values, the source holds several entries; their conditions need not be identical. Identical values can stand only once. Toxic doses and inconclusive results are not listed.

As for `O=C(Nc1ccc(NC(=O)c2ccc(C3=NCCCN3)cc2)cc1)c1ccc(C2=NCCCN2)cc1`, the T/C (dose: 0.93 mg/kg/injection, schedule: Q01DX Z (ip), vehicle: carboxymethylcellulose (CMC)) is 106 % of control; the T/C (dose: 1.87 mg/kg/injection, schedule: Q01DX Z (ip), vehicle: carboxymethylcellulose (CMC)) was 100 % of control; the T/C (dose: 3.75 mg/kg/injection, schedule: Q01DX Z (ip), vehicle: carboxymethylcellulose (CMC)) is 108 % of control and 118 % of control; the T/C (dose: 7.5 mg/kg/injection, schedule: Q01DX Z (ip), vehicle: carboxymethylcellulose (CMC)) was 166 % of control and 191 % of control; the T/C (dose: 15.0 mg/kg/injection, schedule: Q01DX Z (ip), vehicle: carboxymethylcellulose (CMC)) is 200 % of control and 204 % of control; the T/C (dose: 30.0 mg/kg/injection, schedule: Q01DX Z (ip), vehicle: carboxymethylcellulose (CMC)) was 101 % of control. The T/C by setting is: (dose: 37.5 mg/kg/injection, schedule: Q01DX Z (oral), vehicle: carboxymethylcellulose (CMC)) 101 % of control; (dose: 75.0 mg/kg/injection, schedule: Q01DX Z (oral), vehicle: carboxymethylcellulose (CMC)) 110 % of control; (dose: 150.0 mg/kg/injection, schedule: Q01DX Z (oral), vehicle: carboxymethylcellulose (CMC)) 101 % of control; (dose: 300.0 mg/kg/injection, schedule: Q01DX Z (oral), vehicle: carboxymethylcellulose (CMC)) 106 % of control.
Take `COc1ccc(NC(=O)/C=N/O)c(Cl)c1`: the T/C was 94 % of control (dose: 200.0 mg/kg/injection, schedule: Q01DX001 (ip), vehicle: carboxymethylcellulose (CMC)) and 90 % of control (dose: 400.0 mg/kg/injection, schedule: Q01DX001 (ip), vehicle: carboxymethylcellulose (CMC)).
As for `CC1CC(C)(C)OC(C(C)C)O1` (stereo unspecified), the T/C was 100 % of control (dose: 50.0 mg/kg/injection, schedule: Q01DX009 (ip), vehicle: acetone); 95 % of control (dose: 75.0 mg/kg/injection, schedule: Q01DX001 (ip), vehicle: acetone); 97 % of control (dose: 100.0 mg/kg/injection, schedule: Q01DX009 (ip), vehicle: acetone); 92 % of control (dose: 150.0 mg/kg/injection, schedule: Q01DX001 (ip), vehicle: acetone); 94 % of control (dose: 200.0 mg/kg/injection, schedule: Q01DX009 (ip), vehicle: acetone); 87 % of control (dose: 300.0 mg/kg/injection, schedule: Q01DX001 (ip), vehicle: acetone).
Take `COc1ccccc1NC(=O)NCCCCCCNC(=O)Nc1ccccc1OC`: the T/C by setting is: (dose: 100.0 mg/kg/injection, schedule: Q01DX009 (ip), vehicle: Klucel (hydroxypropylcellulose) (HPC)) 89 % of control; (dose: 200.0 mg/kg/injection, schedule: Q01DX009 (ip), vehicle: Klucel (hydroxypropylcellulose) (HPC)) 92 % of control; (dose: 400.0 mg/kg/injection, schedule: Q01DX009 (ip), vehicle: Klucel (hydroxypropylcellulose) (HPC)) 94 % of control.
As for `Cc1c([N+](=O)[O-])ccc2ccccc12`, the T/C is, setting by setting: (dose: 100.0 mg/kg/injection, schedule: Q01DX001 (ip), vehicle: other) 103 % of control; (dose: 100.0 mg/kg/injection, schedule: Q04DX003 (ip), vehicle: Klucel (hydroxypropylcellulose) (HPC)) 108 % of control; (dose: 200.0 mg/kg/injection, schedule: Q01DX001 (ip), vehicle: other) 98 % of control; (dose: 200.0 mg/kg/injection, schedule: Q04DX003 (ip), vehicle: Klucel (hydroxypropylcellulose) (HPC)) 101 % of control; (dose: 400.0 mg/kg/injection, schedule: Q01DX001 (ip), vehicle: other) 103 % of control; (dose: 400.0 mg/kg/injection, schedule: Q04DX003 (ip), vehicle: Klucel (hydroxypropylcellulose) (HPC)) 100 % of control.
`Nc1nc(N)c2nc3c(nc2n1)C(=O)N(c1ccc(C(=O)O)cc1)C3`: the T/C reads like this: (dose: 12.5 mg/kg/injection, schedule: Q01DX001 (ip), vehicle: saline) 102 % of control; (dose: 25.0 mg/kg/injection, schedule: Q01DX001 (ip), vehicle: saline) 91 % of control; (dose: 50.0 mg/kg/injection, schedule: Q01DX001 (ip), vehicle: saline) 102 % of control; under setting [1], 90 % of control.
As for `CCCCNC(C)(C)C(SSSC(c1ccc(Cl)cc1)C(C)(C)NCCCC)c1ccc(Cl)cc1` (stereo unspecified), the T/C was 104 % of control (dose: 12.0 mg/kg/injection, schedule: Q01DX009 (ip), vehicle: Klucel (hydroxypropylcellulose) (HPC)); 100 % of control (dose: 25.0 mg/kg/injection, schedule: Q01DX009 (ip), vehicle: Klucel (hydroxypropylcellulose) (HPC)); 100 % of control (dose: 50.0 mg/kg/injection, schedule: Q01DX009 (ip), vehicle: Klucel (hydroxypropylcellulose) (HPC)).
As for `CC(=O)N(C(C)C)C(C)C`, the T/C (dose: 0.75 mg/kg/injection, schedule: Q01DX001 (ip), vehicle: saline with Tween-80) was 100 % of control; the T/C (dose: 1.5 mg/kg/injection, schedule: Q01DX001 (ip), vehicle: saline with Tween-80) is 97 % of control; the T/C (dose: 3.0 mg/kg/injection, schedule: Q01DX001 (ip), vehicle: saline with Tween-80) was 102 % of control; the T/C (dose: 3.12 mg/kg/injection, schedule: Q01DX001 (ip), vehicle: saline with Tween-80) was 98 % of control; the T/C (dose: 12.5 mg/kg/injection, schedule: Q01DX001 (ip), vehicle: saline with Tween-80) is 100 % of control.
Turning to `CCN(CC)CCOc1ccc(C)cc1`, the T/C by setting is: (dose: 50.0 mg/kg/injection, schedule: Q01DX009 (ip), vehicle: saline) 97 % of control; under setting [1], 89 % of control.
